Key:
Test in all cases: Kinase binding assay (kinase-tagged T7 phage, qPCR), Kd
FGFR1 = biological target: T1, FGFR1 (Homo sapiens, UniProt P11362); settings: read-out: FGFR1 (Kd nM)
T1 construct: made in house; host or cells: E. coli derived from BL21, infected with T7 phage
Method: (§1) Kinase-tagged T7 phage strains were prepared in an E. coli host derived from the BL21 strain. E. coli were grown to log-phase and infected with T7 phage and incubated with shaking at 32° C. until lysis. The lysates were centrifuged and filtered to remove cell debris. […] The liganded beads were blocked with excess biotin and washed with blocking buffer SeaBlock (Pierce), 1% BSA, 0.05% Tween 20, 1 mM DTT to remove unbound ligand and to reduce non-specific binding.
(§2) Kds were determined using an 11-point 3-fold compound dilution series with three DMSO control points. […] The compounds were then diluted directly into the assays such that the final concentration of DMSO was 0.9%. All reactions performed in polypropylene 384-well plate. Each was a final volume of 0.02 ml. […] The kinase concentration in the eluates was measured by qPCR.
(§3) Binding constants were calculated with a standard dose-response curve using the Hill equation: […]
(§4) The Hill Slope was set to −1. Curves were fitted using a non-linear least square fit with the Levenberg-Marquardt algorithm.

FGFR2 = biological target: T2, FGFR2 (Homo sapiens, UniProt P21802); settings: read-out: FGFR2 (Kd nM)
T2 construct: made in house; host or cells: E. coli derived from BL21, infected with T7 phage
Method: as §1, §2, §3, §4

FGFR3 = biological target: T3, FGFR3 (Homo sapiens, UniProt P22607); settings: read-out: FGFR3 (Kd nM)
T3 construct: made in house; host or cells: E. coli derived from BL21, infected with T7 phage
Method: (§5) Kinase-tagged T7 phage strains were prepared in an E. coli host derived from the BL21 strain. E. coli were grown to log-phase and infected with T7 phage and incubated with shaking at 32° C. until lysis. The lysates were centrifuged and filtered to remove cell debris. Streptavidin-coated magnetic beads were treated with biotinylated small molecule ligands for 30 minutes at room temperature to generate affinity resins for kinase assays. The liganded beads were blocked with excess biotin and washed with blocking buffer SeaBlock (Pierce), 1% BSA, 0.05% Tween 20, 1 mM DTT to remove unbound ligand and to reduce non-specific binding. Binding reactions were assembled by combining kinases, liganded affinity beads, and test compounds in 1× binding buffer (20% SeaBlock, 0.17×PBS, 0.05% Tween 20, 6 mM DTT).
(§6) Test compounds were prepared as 111X stocks in 100% DMSO. Kds were determined using an 11-point 3-fold compound dilution series with three DMSO control points. All compounds for Kd measurements are distributed by acoustic transfer (non-contact dispensing) in 100% DMSO. The compounds were then diluted directly into the assays such that the final concentration of DMSO was 0.9%. All reactions performed in polypropylene 384-well plate. Each was a final volume of 0.02 ml. The assay plates were incubated at room temperature with shaking for 1 hour and the affinity beads were washed with wash buffer (1×PBS, 0.05% Tween 20). The beads were then re-suspended in elution buffer (1×PBS, 0.05% Tween 20, 0.5 μM non-biotinylated affinity ligand) and incubated at room temperature with shaking for 30 minutes. The kinase concentration in the eluates was measured by qPCR.
as §3, §4

FGFR4 = biological target: T4, FGFR4 (Homo sapiens, UniProt P22455); settings: read-out: FGFR4 (Kd nM)
T4 construct: made in house; host or cells: E. coli derived from BL21, infected with T7 phage
Method: as §5, §6, §3, §4

T1 sequence (P11362 22-822): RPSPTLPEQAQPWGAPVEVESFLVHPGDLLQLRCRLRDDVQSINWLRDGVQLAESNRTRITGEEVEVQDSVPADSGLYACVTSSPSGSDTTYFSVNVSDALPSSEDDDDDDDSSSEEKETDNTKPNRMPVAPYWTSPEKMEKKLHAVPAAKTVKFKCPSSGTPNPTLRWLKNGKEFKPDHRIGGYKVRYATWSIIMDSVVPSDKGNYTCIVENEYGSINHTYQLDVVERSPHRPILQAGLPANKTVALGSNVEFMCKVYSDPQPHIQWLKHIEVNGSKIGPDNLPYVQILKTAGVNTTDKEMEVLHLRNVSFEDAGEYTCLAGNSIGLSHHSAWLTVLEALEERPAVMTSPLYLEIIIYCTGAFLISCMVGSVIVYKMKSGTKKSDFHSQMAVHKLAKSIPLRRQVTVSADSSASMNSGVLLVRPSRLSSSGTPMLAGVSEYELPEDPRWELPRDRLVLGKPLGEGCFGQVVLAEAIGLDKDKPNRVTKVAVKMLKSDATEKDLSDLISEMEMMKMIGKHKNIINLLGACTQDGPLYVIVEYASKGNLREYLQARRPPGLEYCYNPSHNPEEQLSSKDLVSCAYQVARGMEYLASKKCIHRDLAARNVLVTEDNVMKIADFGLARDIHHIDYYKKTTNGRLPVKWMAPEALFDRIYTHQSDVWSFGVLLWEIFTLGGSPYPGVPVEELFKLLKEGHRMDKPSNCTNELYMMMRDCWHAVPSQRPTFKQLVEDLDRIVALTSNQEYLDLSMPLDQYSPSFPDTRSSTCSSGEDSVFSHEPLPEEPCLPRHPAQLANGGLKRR
T3 sequence (P22607 23-806): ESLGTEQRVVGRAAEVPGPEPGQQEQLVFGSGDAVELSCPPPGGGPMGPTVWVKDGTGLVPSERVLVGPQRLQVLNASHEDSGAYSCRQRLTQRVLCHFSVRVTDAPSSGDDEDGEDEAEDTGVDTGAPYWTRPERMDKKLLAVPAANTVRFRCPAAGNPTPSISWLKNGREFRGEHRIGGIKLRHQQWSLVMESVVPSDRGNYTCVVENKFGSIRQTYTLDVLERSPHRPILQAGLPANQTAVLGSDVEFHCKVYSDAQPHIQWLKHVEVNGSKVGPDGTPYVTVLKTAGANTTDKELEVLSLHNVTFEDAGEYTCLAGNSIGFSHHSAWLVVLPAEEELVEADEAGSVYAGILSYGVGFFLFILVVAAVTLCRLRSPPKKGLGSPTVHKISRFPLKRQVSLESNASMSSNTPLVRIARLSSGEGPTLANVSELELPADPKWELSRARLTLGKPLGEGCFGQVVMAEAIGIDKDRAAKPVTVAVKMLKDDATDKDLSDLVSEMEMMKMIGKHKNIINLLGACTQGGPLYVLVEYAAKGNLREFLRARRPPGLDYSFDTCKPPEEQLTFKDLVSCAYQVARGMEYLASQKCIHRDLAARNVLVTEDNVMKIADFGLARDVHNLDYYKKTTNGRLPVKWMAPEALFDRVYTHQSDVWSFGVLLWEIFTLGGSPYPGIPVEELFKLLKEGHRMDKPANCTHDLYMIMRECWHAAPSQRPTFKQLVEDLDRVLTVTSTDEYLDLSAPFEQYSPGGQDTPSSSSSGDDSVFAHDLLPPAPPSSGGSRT
T4 sequence (P22455 22-802): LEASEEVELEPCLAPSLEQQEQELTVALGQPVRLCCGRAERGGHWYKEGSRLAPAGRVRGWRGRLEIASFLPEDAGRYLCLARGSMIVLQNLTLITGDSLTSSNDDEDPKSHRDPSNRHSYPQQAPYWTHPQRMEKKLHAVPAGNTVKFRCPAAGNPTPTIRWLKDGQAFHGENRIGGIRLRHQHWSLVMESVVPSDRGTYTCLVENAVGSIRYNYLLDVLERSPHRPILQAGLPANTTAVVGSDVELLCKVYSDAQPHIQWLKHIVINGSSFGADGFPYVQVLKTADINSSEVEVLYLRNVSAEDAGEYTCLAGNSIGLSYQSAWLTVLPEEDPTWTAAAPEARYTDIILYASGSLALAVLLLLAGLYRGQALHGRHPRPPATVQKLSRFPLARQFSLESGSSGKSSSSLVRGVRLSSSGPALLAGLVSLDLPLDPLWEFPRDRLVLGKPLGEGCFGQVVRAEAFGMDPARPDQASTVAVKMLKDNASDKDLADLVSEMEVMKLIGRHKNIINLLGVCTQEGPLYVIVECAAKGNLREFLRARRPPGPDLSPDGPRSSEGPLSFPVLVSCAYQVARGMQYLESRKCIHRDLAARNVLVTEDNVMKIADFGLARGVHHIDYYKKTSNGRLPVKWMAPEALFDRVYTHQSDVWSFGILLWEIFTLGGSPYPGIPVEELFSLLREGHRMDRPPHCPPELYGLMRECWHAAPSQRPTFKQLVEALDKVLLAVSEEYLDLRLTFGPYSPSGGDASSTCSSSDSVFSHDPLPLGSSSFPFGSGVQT
T2 sequence (P21802 22-821): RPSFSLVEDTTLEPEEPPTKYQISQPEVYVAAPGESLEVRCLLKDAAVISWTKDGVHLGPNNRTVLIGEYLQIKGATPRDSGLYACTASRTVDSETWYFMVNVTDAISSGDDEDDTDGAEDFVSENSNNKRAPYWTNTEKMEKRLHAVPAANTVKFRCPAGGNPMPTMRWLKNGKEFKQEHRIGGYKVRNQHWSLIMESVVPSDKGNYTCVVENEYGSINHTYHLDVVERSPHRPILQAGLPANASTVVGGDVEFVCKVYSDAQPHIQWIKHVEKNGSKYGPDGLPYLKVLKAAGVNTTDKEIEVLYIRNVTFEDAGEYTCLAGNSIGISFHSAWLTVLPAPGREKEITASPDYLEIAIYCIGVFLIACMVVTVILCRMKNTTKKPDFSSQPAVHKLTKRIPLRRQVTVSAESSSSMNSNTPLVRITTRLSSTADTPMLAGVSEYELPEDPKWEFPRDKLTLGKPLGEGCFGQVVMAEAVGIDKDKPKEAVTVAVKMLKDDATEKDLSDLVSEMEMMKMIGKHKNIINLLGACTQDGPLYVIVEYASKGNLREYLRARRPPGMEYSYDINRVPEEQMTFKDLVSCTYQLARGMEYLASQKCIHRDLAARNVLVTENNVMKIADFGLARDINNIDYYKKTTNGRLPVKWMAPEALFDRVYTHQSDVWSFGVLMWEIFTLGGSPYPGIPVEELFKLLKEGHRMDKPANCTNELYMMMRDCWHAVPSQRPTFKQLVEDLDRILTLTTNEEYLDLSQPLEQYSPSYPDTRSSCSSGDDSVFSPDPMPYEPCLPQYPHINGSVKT

Compound	Kd (FGFR1)	Kd (FGFR2)	Kd (FGFR3)	Kd (FGFR4)
CCOc1cc(C#N)cc(-c2n[nH]c3ccc(O[C@H](C)c4c(C)cnnc4C)cc23)c1 [Example 56, 3-[5-[(1R)-1-(3,5-dimethylpyridazin-4-yl)ethoxy]-1H-indazol-3-yl]-5-ethoxy-benzonitrile]	250 to 1000 nM	250 to 1000 nM	100 to 250 nM	0.1 to 100 nM
Cc1cnnc(C)c1[C@@H](C)Oc1ccc2[nH]nc(-c3cc(C#N)cc(OC(C)C)c3)c2c1 [Example 57, 3-[5-[(1R)-1-(3,5-dimethylpyridazin-4-yl)ethoxy]-1H-indazol-3-yl]-5-isopropoxy-benzonitrile]	250 to 1000 nM	> 1000 nM	250 to 1000 nM	0.1 to 100 nM
COc1cc(OC)cc(-c2n[nH]c3ccc(O[C@@H](C)c4c(C)cnnc4C)cc23)c1 [Example 58, 3-(3,5-dimethoxyphenyl)-5-[(1S)-1-(3,5-dimethylpyridazin-4-yl)ethoxy]-1H-indazole]	0.1 to 100 nM	0.1 to 100 nM	0.1 to 100 nM	0.1 to 100 nM
CCOc1cc(OC)cc(-c2n[nH]c3ccc(O[C@@H](C)c4c(C)cnnc4C)cc23)c1 [Example 59, 5-[(1S)-1-(3,5-dimethylpyridazin-4-yl)ethoxy]-3-(3-ethoxy-5-methoxy-phenyl)-1H-indazole]	> 1000 nM	> 1000 nM	> 1000 nM	> 1000 nM
COc1cc(OC(C)C)cc(-c2n[nH]c3ccc(O[C@H](C)c4c(C)cnnc4C)cc23)c1 [Example 60, 5-[(1R)-1-(3,5-dimethylpyridazin-4-yl)ethoxy]-3-(3-isopropoxy-5-methoxy-phenyl)-1H-indazole]	> 1000 nM	> 1000 nM	> 1000 nM	> 1000 nM
Cc1cnnc(C)c1[C@@H](C)Oc1ccc2[nH]nc(-c3cc(C#N)cc(OC(F)(F)F)c3)c2c1 [Example 61, 3-[5-[(1R)-1-(3,5-dimethylpyridazin-4-yl)ethoxy]-1H-indazol-3-yl]-5-(trifluoromethoxy)-benzonitrile]	> 1000 nM	> 1000 nM	> 1000 nM	250 to 1000 nM
Cc1cnnc(C)c1[C@@H](C)Oc1ccc2[nH]nc(-c3cc(C#N)cc(N4CCN(C)CC4)c3)c2c1 [Example 62, 3-[5-[(1R)-1-(3,5-dimethylpyridazin-4-yl)ethoxy]-1H-indazol-3-yl]-5-(4-methylpiperazin-1-yl)benzonitrile]	> 1000 nM	> 1000 nM	> 1000 nM	100 to 250 nM
COc1cc(OC(F)(F)F)cc(-c2n[nH]c3ccc(O[C@H](C)c4c(C)cnnc4C)cc23)c1 [Example 63, 5-[(1R)-1-(3,5-dimethylpyridazin-4-yl)ethoxy]-3-[3-methoxy-5-(trifluoromethoxy)phenyl]-1H-indazole]	> 1000 nM	> 1000 nM	250 to 1000 nM	0.1 to 100 nM
Cc1cnnc(C)c1[C@@H](C)Oc1ccc2[nH]nc(-c3cc(C#N)cc(N4CCOCC4)c3)c2c1 [Example 64, 3-[5-[(1R)-1-(3,5-Dimethylpyridazin-4-yl)ethoxy]-1H-indazol-3-yl]-5-morpholino-benzonitrile]	> 1000 nM	> 1000 nM	> 1000 nM	100 to 250 nM
Cc1cnnc(C)c1[C@H](C)Oc1ccc2[nH]nc(-c3cc(C#N)cc(N4CCOCC4)c3)c2c1 [Example 65, 3-[5-[(1S)-1-(3,5-Dimethylpyridazin-4-yl)ethoxy]-1H-indazol-3-yl]-5-morpholino-benzonitrile]	> 1000 nM	> 1000 nM	> 1000 nM	> 1000 nM
Cc1cnnc(C)c1[C@H](C)Oc1ccc2[nH]nc(-c3cc(C#N)cc(N4CCN(C)CC4)c3)c2c1 [Example 66, 3-[5-[(1S)-1-(3,5-dimethylpyridazin-4-yl)ethoxy]-1H-indazol-3-yl]-5-(4-methylpiperazin-1-yl)benzonitrile]	> 1000 nM	> 1000 nM	> 1000 nM	250 to 1000 nM
Cc1cnnc(C)c1[C@@H](C)Oc1ccc2[nH]nc(-c3cc(C#N)cc(OC4CCOC4)c3)c2c1 (stereo partly drawn) [Example 67, 3-[5-[(1R)-1-(3,5-dimethylpyridazin-4-yl)ethoxy]-1H-indazol-3-yl]-5-tetrahydrofuran-3-yloxy-benzonitrile]	100 to 250 nM	250 to 1000 nM	100 to 250 nM	0.1 to 100 nM
COc1cc(OCC2CC2)cc(-c2n[nH]c3ccc(O[C@H](C)c4c(C)cnnc4C)cc23)c1 [Example 68, 3-[3-(cyclopropyl-methoxy)-5-methoxy-phenyl]-5-[(1R)-1-(3,5-dimethylpyridazin-4-yl)ethoxy]-1H-indazole]	> 1000 nM	> 1000 nM	> 1000 nM	0.1 to 100 nM
Cc1cc(-c2n[nH]c3ccc(O[C@H](C)c4c(C)cnnc4C)cc23)cc(C#N)n1 [Example 69, 4-[5-[(1R)-1-(3,5-Dimethylpyridazin-4-yl)ethoxy]-1H-indazol-3-yl]-6-methyl-pyridine-2-carbonitrile]	100 to 250 nM	0.1 to 100 nM	0.1 to 100 nM	0.1 to 100 nM
Cc1cc(-c2n[nH]c3ccc(O[C@@H](C)c4c(C)cnnc4C)cc23)cc(C#N)n1 [Example 70, 4-[5-[(1S)-1-(3,5-Dimethylpyridazin-4-yl)ethoxy]-1H-indazol-3-yl]-6-methyl-pyridine-2-carbonitrile]	> 1000 nM	> 1000 nM	> 1000 nM	> 1000 nM
Cc1cnnc(C)c1[C@@H](C)Oc1ccc2[nH]nc(-c3cc(C#N)cc(OC4CCOCC4)c3)c2c1 [Example 71, 3-[5-[(1R)-1-(3,5-dimethylpyridazin-4-yl)ethoxy]-1H-indazol-3-yl]-5-tetrahydropyran-4-yloxy-benzonitrile]	250 to 1000 nM	> 1000 nM	250 to 1000 nM	0.1 to 100 nM
CCOCCOc1cc(C#N)cc(-c2n[nH]c3ccc(O[C@H](C)c4c(C)cnnc4C)cc23)c1 [Example 73, 3-[5-[(1R)-1-(3,5-dimethylpyridazin-4-yl)ethoxy]-1H-indazol-3-yl]-5-(2-ethoxyethoxy)-benzonitrile]	> 1000 nM	250 to 1000 nM	100 to 250 nM	0.1 to 100 nM
COc1ncc(-c2n[nH]c3ccc(O[C@H](C)c4c(Cl)cncc4Cl)cc23)cc1C#N [Example 74, 5-[5-[(1R)-1-(3,5-dichloro-4-pyridyl)ethoxy]-1H-indazol-3-yl]-2-methoxy-pyridine-3-carbonitrile]	250 to 1000 nM	250 to 1000 nM	0.1 to 100 nM	0.1 to 100 nM
COCCOc1cc(C#N)cc(-c2n[nH]c3ccc(O[C@H](C)c4c(C)cnnc4C)cc23)c1 [Example 75, 3-[5-[(1R)-1-(3,5-dimethylpyridazin-4-yl)ethoxy]-1H-indazol-3-yl]-5-(2-methoxyethoxy)-benzonitrile]	100 to 250 nM	100 to 250 nM	0.1 to 100 nM	0.1 to 100 nM
COc1cc(-c2n[nH]c3ccc(O[C@H](C)c4c(C)cnnc4C)cc23)cc(C#N)c1OC [Example 76, 5-[5-[(1R)-1-(3,5-dimethylpyridazin-4-yl)ethoxy]-1H-indazol-3-yl]-2,3-dimethoxy-benzonitrile]	250 to 1000 nM	> 1000 nM	100 to 250 nM	0.1 to 100 nM
Cc1cc(-c2n[nH]c3ccc(O[C@H](C)c4c(C)cnnc4C)cc23)cc(C#N)c1F [Example 77, 5-[5-[(1R)-1-(3,5-dimethylpyridazin-4-yl)ethoxy]-1H-indazol-3-yl]-2-fluoro-3-methyl-benzonitrile]	250 to 1000 nM	100 to 250 nM	0.1 to 100 nM	0.1 to 100 nM
Cc1cnnc(C)c1[C@@H](C)Oc1ccc2[nH]nc(-c3cc(C#N)cc(OCC4CC4)c3)c2c1 [Example 78, 3-(cyclopropylmethoxy)-5-[5-[(1R)-1-(3,5-dimethylpyridazin-4-yl)ethoxy]-1H-indazol-3-yl]benzonitrile]	> 1000 nM	> 1000 nM	250 to 1000 nM	0.1 to 100 nM
COc1c(C)cc(-c2n[nH]c3ccc(O[C@H](C)c4c(C)cnnc4C)cc23)cc1C#N [Example 80, 5-[5-[(1R)-1-(3,5-dimethylpyridazin-4-yl)ethoxy]-1H-indazol-3-yl]-2-methoxy-3-methyl-benzonitrile]	100 to 250 nM	0.1 to 100 nM	0.1 to 100 nM	0.1 to 100 nM

Source: patent US20240316022A1 (TYRA BIOSCIENCES, INC., priority 2021, published 2024)
